Laboratory results as given in patent publication US20100168102A9, “Amide Derivatives as Kinase Inhibitors” (Devgen NV, priority 2005, published 2010).

Tests used:
[1] = target: T1, PKC epsilon (Homo sapiens, UniProt Q02156); assay: Biochemical assay for PKC epsilon (fluorescence polarization, Protein Kinase C Assay Kit, Red); details: Table 2, compounds of Formula XIII; read-out: IC50 μM PKCε
T1 construct: purchased Invitrogen P2282
T1 sequence (Q02156 1-737): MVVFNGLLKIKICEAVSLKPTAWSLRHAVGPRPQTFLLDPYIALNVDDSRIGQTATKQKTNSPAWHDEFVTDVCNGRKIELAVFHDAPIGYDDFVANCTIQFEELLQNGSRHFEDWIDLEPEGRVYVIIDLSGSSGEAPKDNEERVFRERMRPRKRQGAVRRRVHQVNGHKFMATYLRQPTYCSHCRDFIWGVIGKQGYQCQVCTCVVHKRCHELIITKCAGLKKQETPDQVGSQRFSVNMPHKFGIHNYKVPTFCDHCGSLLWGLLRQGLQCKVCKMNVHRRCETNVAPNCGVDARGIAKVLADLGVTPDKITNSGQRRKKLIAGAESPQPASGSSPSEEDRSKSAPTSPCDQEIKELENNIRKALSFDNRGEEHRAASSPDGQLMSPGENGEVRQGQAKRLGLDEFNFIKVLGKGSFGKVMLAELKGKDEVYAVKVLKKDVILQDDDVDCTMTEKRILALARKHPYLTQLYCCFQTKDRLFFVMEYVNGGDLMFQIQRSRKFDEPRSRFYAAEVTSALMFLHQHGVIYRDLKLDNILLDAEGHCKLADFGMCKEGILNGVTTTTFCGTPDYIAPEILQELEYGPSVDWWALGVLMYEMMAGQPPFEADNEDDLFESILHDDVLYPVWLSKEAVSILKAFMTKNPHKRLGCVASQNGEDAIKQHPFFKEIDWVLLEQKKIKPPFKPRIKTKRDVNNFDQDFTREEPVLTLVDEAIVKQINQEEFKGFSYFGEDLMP
Method in brief: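 Read-out was fluorescence-polarization competition between phosphorylated substrate and a rhodamine PKC tracer for an anti-phosphoserine antibody, added with EDTA stop after an 80 min room-temperature kinase reaction with ATP and protein substrate (Mg2+/Ca2+ buffer). Enzyme (10 ng/ml final) was preincubated with compound for 30 min.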

[2] = target: T2, human ROCKα/ROCKII mix (Homo sapiens, UniProt O75116); assay: Biochemical assay for ROCK (fluorescence polarization, ROCK IMAP Kit); details: Table 2, compounds of Formula XIII
T2 construct: purchased Upstate Biotechnology 14-451
T2 sequence (O75116 11-552 limits assumed): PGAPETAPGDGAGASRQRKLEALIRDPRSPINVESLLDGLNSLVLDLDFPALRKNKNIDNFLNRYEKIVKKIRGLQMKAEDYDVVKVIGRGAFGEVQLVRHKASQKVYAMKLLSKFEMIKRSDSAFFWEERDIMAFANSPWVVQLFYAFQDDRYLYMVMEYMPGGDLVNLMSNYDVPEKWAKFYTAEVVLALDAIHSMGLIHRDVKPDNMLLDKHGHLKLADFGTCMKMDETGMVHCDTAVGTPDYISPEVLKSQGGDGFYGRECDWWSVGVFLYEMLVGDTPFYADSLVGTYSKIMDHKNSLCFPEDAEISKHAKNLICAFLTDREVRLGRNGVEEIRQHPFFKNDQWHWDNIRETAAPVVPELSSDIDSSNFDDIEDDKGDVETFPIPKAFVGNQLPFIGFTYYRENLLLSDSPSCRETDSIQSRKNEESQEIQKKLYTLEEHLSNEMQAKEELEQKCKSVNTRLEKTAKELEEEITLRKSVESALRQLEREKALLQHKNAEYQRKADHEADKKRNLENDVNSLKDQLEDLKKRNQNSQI

| SMILES | IC50 [1] | IC50 [2] |
| --- | --- | --- |
| NC(CNC(=O)c1cccc(Cn2cccn2)c1)c1ccc(C(=O)Nc2ccncc2)cc1 (stereo not drawn) [Compound 103, 4-{1-amino-2-[(3-pyrazol-1ylmethyl)-benzoylamino]-ethyl}-N-pyridin-4-yl-benzamide] | 0.5 to 5 µM | 0.5 to 5 µM |
| NC(CNC(=O)c1ccncc1)c1ccc(C(=O)Nc2ccncc2)cc1 (stereo not drawn) [Compound 104, N-{2-Amino-2-[4-(pyridin-4-ylcarbamoyl)-phenyl]-ethyl}-isonicotinamide] | 5 to 50 µM | 0.5 to 5 µM |
| NC(CNC(=O)c1ccccn1)c1ccc(C(=O)Nc2ccncc2)cc1 (stereo not drawn) [Compound 105, Pyridine-2-carboxylic acid {2-amino-2-[4-(pyridin-4-ylcarbamoyl)-phenyl]-ethyl}-amide] | 5 to 50 µM | 0.5 to 5 µM |
| NC(CNC(=O)c1cccnc1)c1ccc(C(=O)Nc2ccncc2)cc1 (stereo not drawn) [Compound 106, N-{2-Amino-2-[4-(pyridin-4-ylcarbamoyl)-phenyl]-ethyl}-nicotinamide] | 0.5 to 5 µM | 0.5 to 5 µM |
| NC(CNC(=O)c1cnccn1)c1ccc(C(=O)Nc2ccncc2)cc1 (stereo not drawn) [Compound 108, Pyrazine-2-carboxylic acid {2-amino-2-[4-(pyridin-4-ylcarbamoyl)-phenyl]-ethyl}-amide] | 5 to 50 µM | 0.5 to 5 µM |
| NC(CNC(=O)c1ccc(=O)[nH]n1)c1ccc(C(=O)Nc2ccncc2)cc1 (stereo not drawn) [Compound 109, 6-Oxo-1,6-dihydro-pyridazine-3-carboxylic acid {2-amino-2-[4-(pyridin-4-ylcarbamoyl)-phenyl]-ethyl}-amide] | 5 to 50 µM | 0.5 to 5 µM |
| NC(CNC(=O)c1nccc2ccccc12)c1ccc(C(=O)Nc2ccncc2)cc1 (stereo not drawn) [Compound 110, Isoquinoline-1-carboxylic acid {2-amino-2-[4-(pyridin-4-ylcarbamoyl)-phenyl]-ethyl}-amide] | 0.5 to 5 µM | 0.5 to 5 µM |
| NC(CNC(=O)c1ccnc2ccccc12)c1ccc(C(=O)Nc2ccncc2)cc1 (stereo not drawn) [Compound 111, Quinoline-4-carboxylic acid {2-amino-2-[4-(pyridin-4-ylcarbamoyl)-phenyl]-ethyl}-amide] | 0.5 to 5 µM | 0.5 to 5 µM |
| NC(CNC(=O)c1cnnc2ccccc12)c1ccc(C(=O)Nc2ccncc2)cc1 (stereo not drawn) [Compound 113, Cinnoline-4-carboxylic acid {2-amino-2-[4-(pyridin-4-ylcarbamoyl)-phenyl]-ethyl}-amide] | 0.5 to 5 µM | 0.5 to 5 µM |
| NC(CNC(=O)c1ccc2ncccc2c1)c1ccc(C(=O)Nc2ccncc2)cc1 (stereo not drawn) [Compound 114, Quinoline-6-carboxylic acid {2-amino-2-[4-(pyridin-4-ylcarbamoyl)-phenyl]-ethyl}-amide] | 5 to 50 µM | 0.5 to 5 µM |
| NC(CNC(=O)c1ccsc1)c1ccc(C(=O)Nc2ccncc2)cc1 (stereo not drawn) [Compound 115, Thiophene-3-carboxylic acid {2-amino-2-[4-(pyridin-4-ylcarbamoyl)-phenyl]-ethyl}-amide] | 0.5 to 5 µM | 0.05 to 0.5 µM |
| NC(CNC(=O)c1cccs1)c1ccc(C(=O)Nc2ccncc2)cc1 (stereo not drawn) [Compound 116, Thiophene-2-carboxylic acid {2-amino-2-[4-(pyridin-4-ylcarbamoyl)-phenyl]-ethyl}-amide] | 0.05 to 0.5 µM | 0.05 to 0.5 µM |
| Cc1ccc(C(=O)NCC(N)c2ccc(C(=O)Nc3ccncc3)cc2)s1 (stereo not drawn) [Compound 117, 5-Methyl-thiophene-2-carboxylic acid {2-amino-2-[4-(pyridin-4-ylcarbamoyl)-phenyl]-ethyl}-amide] | 0.5 to 5 µM | 0.5 to 5 µM |
| CC(=NOC(C)(C)C)c1ccc(C(=O)NCC(N)c2ccc(C(=O)Nc3ccncc3)cc2)s1 (stereo not drawn) [Compound 118, 5-(1-tert-Butoxyimino-ethyl)-thiophene-2-carboxylic acid {2-amino-2-[4-(pyridin-4-ylcarbamoyl)-phenyl]-ethyl}-amide] | 5 to 50 µM | 0.5 to 5 µM |
| NC(CNC(=O)c1ccoc1)c1ccc(C(=O)Nc2ccncc2)cc1 (stereo not drawn) [Compound 119, Furan-3-carboxylic acid {2-amino-2-[4-(pyridin-4-ylcarbamoyl)-phenyl]-ethyl}-amide] | 0.5 to 5 µM | 0.05 to 0.5 µM |
| NC(CNC(=O)c1ccc([N+](=O)[O-])o1)c1ccc(C(=O)Nc2ccncc2)cc1 (stereo not drawn) [Compound 120, 5-Nitro-furan-2-carboxylic acid {2-amino-2-[4-(pyridin-4-ylcarbamoyl)-phenyl]-ethyl}-amide] | 0.5 to 5 µM | 0.5 to 5 µM |
| Cn1cccc1C(=O)NCC(N)c1ccc(C(=O)Nc2ccncc2)cc1 (stereo not drawn) [Compound 121, 1-Methyl-1H-pyrrole-2-carboxylic acid {2-amino-2-[4-(pyridin-4-ylcarbamoyl)-phenyl]-ethyl}-amide] | 0.5 to 5 µM | 0.5 to 5 µM |
| NC(CNC(=O)c1c[nH]cn1)c1ccc(C(=O)Nc2ccncc2)cc1 (stereo not drawn) [Compound 122, 1H-Imidazole-4-carboxylic acid {2-amino-2-[4-(pyridin-4-ylcarbamoyl)-phenyl]-ethyl}-amide] | 5 to 50 µM | 0.5 to 5 µM |
| Nc1c(C(=O)NCC(N)c2ccc(C(=O)Nc3ccncc3)cc2)cnn1-c1ccc(F)cc1 (stereo not drawn) [Compound 123, 5-Amino-1-(4-fluorophenyl)-1H-pyrazole-4-carboxylic acid {2-amino-2-[4-(pyridin-4-ylcarbamoyl)-phenyl]-ethyl}-amide] | 5 to 50 µM | 0.5 to 5 µM |

Other lines, results leading:

| IC50 [1] | IC50 [2] | SMILES |
| --- | --- | --- |
| 5 to 50 µM | 0.5 to 5 µM | NC(CNC(=O)c1csc(-c2ccccc2)n1)c1ccc(C(=O)Nc2ccncc2)cc1 (stereo not drawn) [Compound 124, 2-Phenyl-thiazole-4-carboxylic acid {2-amino-2-[4-(pyridin-4-ylcarbamoyl)-phenyl]-ethyl}-amide] |
| 0.5 to 5 µM | 0.5 to 5 µM | NC(CNC(=O)c1csc(Nc2ccc(F)cc2)n1)c1ccc(C(=O)Nc2ccncc2)cc1 (stereo not drawn) [Compound 125, 2-(4-Fluoro-phenylamino)-thiazole-4-carboxylic acid {2-amino-2-[4-(pyridin-4-ylcarbamoyl)phenyl]-ethyl}-amide] |
| 5 to 50 µM | 0.5 to 5 µM | Cc1nc(-c2ccccc2)sc1C(=O)NCC(N)c1ccc(C(=O)Nc2ccncc2)cc1 (stereo not drawn) [Compound 126, 4-Methyl-2-Phenyl-thiazole-5-carboxylic acid {2-amino-2-[4-(pyridin-4-ylcarbamoyl)-phenyl]-ethyl}-amide] |
| 5 to 50 µM | 0.5 to 5 µM | NC(CNC(=O)c1ccc2[nH]nnc2c1)c1ccc(C(=O)Nc2ccncc2)cc1 (stereo not drawn) [Compound 127, 1H-Benzotriazole-5-carboxylic acid {2-amino-2-[4-(pyridin-4-ylcarbamoyl)-phenyl]-ethyl}-amide] |
| 5 to 50 µM | 0.5 to 5 µM | COc1ccc2[nH]c(C(=O)NCC(N)c3ccc(C(=O)Nc4ccncc4)cc3)cc2c1 (stereo not drawn) [Compound 128, 5-Methoxy-1H-indole-2-carboxylic acid {2-amino-2-[4-(pyridin-4-ylcarbamoyl)-phenyl]-ethyl}-amide] |
| 5 to 50 µM | 0.5 to 5 µM | NC(CNC(=O)c1cc2cc(F)ccc2[nH]1)c1ccc(C(=O)Nc2ccncc2)cc1 (stereo not drawn) [Compound 129, 5-Fluoro-1H-indole-2-carboxylic acid {2-amino-2-[4-(pyridin-4-ylcarbamoyl)-phenyl]-ethyl}-amide] |
| 5 to 50 µM | 0.5 to 5 µM | NC(CNC(=O)c1cc2ccccc2[nH]1)c1ccc(C(=O)Nc2ccncc2)cc1 (stereo not drawn) [Compound 130, 1H-Indole-2-carboxylic acid {2-amino-2-[4-(pyridin-4-ylcarbamoyl)-phenyl]-ethyl}-amide] |
| 5 to 50 µM | 0.5 to 5 µM | NC(CNC(=O)c1ccc2cc[nH]c2c1)c1ccc(C(=O)Nc2ccncc2)cc1 (stereo not drawn) [Compound 131, 1H-Indole-6-carboxylic acid {2-amino-2-[4-(pyridin-4-ylcarbamoyl)-phenyl]-ethyl}-amide] |
| 0.5 to 5 µM | 0.05 to 0.5 µM | NC(CNC(=O)c1ccc2[nH]ccc2c1)c1ccc(C(=O)Nc2ccncc2)cc1 (stereo not drawn) [Compound 132, 1H-Indole-5-carboxylic acid {2-amino-2-[4-(pyridin-4-ylcarbamoyl)-phenyl]-ethyl}-amide] |
| 5 to 50 µM | 0.05 to 0.5 µM | COc1cccc2cc(C(=O)NCC(N)c3ccc(C(=O)Nc4ccncc4)cc3)oc12 (stereo not drawn) [Compound 133, 7-Methoxy-benzofuran-2-carboxylic acid {2-amino-2-[4-(pyridin-4-ylcarbamoyl)-phenyl]-ethyl}-amide] |
| 5 to 50 µM | 0.5 to 5 µM | NC(CNC(=O)c1cc2cc(Cl)ccc2o1)c1ccc(C(=O)Nc2ccncc2)cc1 (stereo not drawn) [Compound 134, 5-Chloro-benzofuran-2-carboxylic acid {2-amino-2-[4-(pyridin-4-ylcarbamoyl)-phenyl]-ethyl}-amide] |
